± gives the standard deviation of the averaged measurements.
Assays:
Assay in all cases: level (log10 ratio to DMSO vehicle control); higher = higher biomarker level / cell amount than vehicle control
Conditions in all cases: in DMSO
[1] = compound: C=C(C)C(=O)OCC(F)(F)C(F)(F)C(F)(F)C(F)(F)C(F)(F)C(F)(F)C(F)(F)F
Method: (§1)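 BioMAP Diversity Plus panel of 12 human primary cell co-culture systems (3C, 4H, LPS, SAg, BT, BF4T, BE3C, CASM3C, HDF3CGF, KF3CT, MyoF, Mphg). Compounds were added 1 h before stimulation and left for 24 h (MyoF 48 h; BT 72 h for soluble read-outs or 6 d for IgG). Biomarkers were read by ELISA, cytotoxicity by SRB, PBMC viability and proliferation by Alamar Blue. Each well value was divided by the mean of 8 DMSO control wells on the same plate and log10 transformed; duplicate blinded samples were tested at 4 concentrations.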

[2] = compound: CNS(=O)(=O)C(F)(F)C(F)(F)C(F)(F)C(F)(F)C(F)(F)C(F)(F)C(F)(F)C(F)(F)F [N-Methylperfluorooctanesulfonamide]
Method: as §1

Azathioprine = compound: Cn1cnc([N+](=O)[O-])c1Sc1ncnc2[nH]cnc12 [Azathioprine]
Method: as §1

Hexafluoroglutaric acid = compound: O=C(O)C(F)(F)C(F)(F)C(F)(F)C(=O)O [Hexafluoroglutaric acid]
Method: as §1

[3] = compound: O=C(O)C(F)(F)OC(F)(F)C(F)(F)OC(F)(F)C(F)(F)C(F)(F)C(F)(F)F [Perfluoro-3,6-dioxadecanoic acid]
Method: as §1

[4] = compound: O=C(O)CCC(F)(F)C(F)(F)C(F)(F)F [3:3 Fluorotelomer carboxylic acid]
Method: as §1

Test System	level (log10) ([1]; 6700 nM)	level (log10) ([1]; 20000 nM)	level (log10) ([2]; 6700 nM)	level (log10) ([2]; 20000 nM)	level (log10) ([2]; 60000 nM)	level (log10) (Azathioprine; 1400 nM)	level (log10) (Azathioprine; 4200 nM)	level (log10) (Azathioprine; 13000 nM)	level (log10) (Azathioprine; 38000 nM)	level (log10) (Hexafluoroglutaric acid; 6700 nM)	level (log10) (Hexafluoroglutaric acid; 20000 nM)	level (log10) (Hexafluoroglutaric acid; 60000 nM)	level (log10) ([3]; 6700 nM)	level (log10) ([3]; 20000 nM)	level (log10) ([3]; 60000 nM)	level (log10) ([4]; 6700 nM)	level (log10) ([4]; 20000 nM)	level (log10) ([4]; 60000 nM)
KF3CT:CD54/ICAM-1	0.0045 ± 0.019	-0.018 ± 0.031	0.031 ± 0.03	-0.035 ± 0.014	0.018 ± 0.0028	-0.02 ± 0.0028	0.0015 ± 0.0092	-0.005 ± 0.0085	0.0045 ± 0.011	-0.0045 ± 0.00071	-0.014 ± 0.0057	-0.0015 ± 0.044	-0.0295 ± 0.023	-0.0435 ± 0.0035	-0.033 ± 0.0085	-0.0055 ± 0.0092	-0.008 ± 0.0014	0.001 ± 0.028
KF3CT:CXCL8/IL-8	-0.0025 ± 0.019	0.009 ± 0.033	-0.039 ± 0.041	-0.158 ± 0.037	-0.106 ± 0.02	-0.0045 ± 0.015	-0.0225 ± 0.025	-0.0545 ± 0.019	-0.0335 ± 0.016	-0.0115 ± 0.025	-0.006 ± 0.0057	-0.0135 ± 0.0021	-0.019 ± 0.011	-0.0145 ± 0.00071	-0.103 ± 0.014	0.0005 ± 0.022	-0.0035 ± 0.0092	-0.0005 ± 0.0064
KF3CT:CXCL9/MIG	0.007 ± 0.0028	0.006 ± 0.0028	-0.008 ± 0.0057	-0.0015 ± 0.0092	-0.0035 ± 0.023	-0.0015 ± 0.00071	-0.008 ± 0.0014	-0.005 ± 0.0099	0.0205 ± 0.015	-0.007 ± 0.0014	-0.0075 ± 0.0064	-0.0065 ± 0.0021	-0.0095 ± 0.0064	-0.002 ± 0.0028	-0.005 ± 0.0085	0 ± 0.0099	0.0055 ± 0.015	0.005 ± 0.0028
KF3CT:CXCL10/IP-10	0.0075 ± 0.005	-0.015 ± 0.011	0.0005 ± 0.04	0.003 ± 0.034	0.0255 ± 0.026	0.0135 ± 0.00071	-0.0035 ± 0.0021	-0.0105 ± 0.011	-0.0035 ± 0.019	-0.001	-0.01 ± 0.0014	0.005 ± 0.0014	-0.022 ± 0.0042	-0.0335 ± 0.011	-0.113 ± 0.028	-0.0015 ± 0.0035	-0.008 ± 0.0057	-0.0045 ± 0.0035
KF3CT:IL-1alpha	-0.014 ± 0.023	0.0015 ± 0.0092	0.0585 ± 0.026	0.0435 ± 0.026	0.051 ± 0.016	-0.015 ± 0.0099	0.01 ± 0.013	0.0115 ± 0.005	0.035 ± 0.0042	-0.021 ± 0.014	0.012 ± 0.013	-0.0395 ± 0.012	0.022 ± 0.0057	-0.0495 ± 0.013	-0.0295 ± 0.005	-0.0065 ± 0.059	0.0035 ± 0.023	0.0135 ± 0.019
KF3CT:MMP-9	0.012 ± 0.03	0.009 ± 0.027	0.0055 ± 0.005	-0.0495 ± 0.0035	-0.098 ± 0.027	-0.008 ± 0.011	0.0015 ± 0.0064	-0.0255 ± 0.0064	-0.0375 ± 0.011	-0.001 ± 0.023	0.015 ± 0.021	0.005 ± 0.0099	-0.012 ± 0.014	0.005 ± 0.034	0.0215 ± 0.0078	0.001 ± 0.0028	-0.001 ± 0.0042	0.003 ± 0.0042
KF3CT:PAI-I	-0.004 ± 0.02	0.006 ± 0.0014	0.0465 ± 0.0078	0.101 ± 0.0071	0.0425 ± 0.028	0.01 ± 0.024	-0.0105 ± 0.015	-0.0365 ± 0.011	-0.071 ± 0.0071	-0.004 ± 0.0042	-0.0005 ± 0.005	0.0045 ± 0.0092	-0.007 ± 0.0014	-0.0325 ± 0.0078	-0.0495 ± 0.021	-0.009 ± 0.031	-0.0125 ± 0.0021	-0.004 ± 0.0071
KF3CT:SRB	-0.0185 ± 0.0092	-0.015 ± 0.011	-0.0005 ± 0.00071	-0.0035 ± 0.0078	-0.002 ± 0.024	0.003 ± 0.0057	0.0015 ± 0.0064	0.001 ± 0.0057	-0.0065 ± 0.0021	-0.0055 ± 0.0021	-0.011 ± 0.0057	0.003 ± 0.018	-0.0175 ± 0.011	-0.022 ± 0.013	-0.013 ± 0.031	-0.0085 ± 0.00071	-0.004 ± 0.0042	0.0015 ± 0.018
KF3CT:TIMP-2	0.0115 ± 0.018	-0.0195 ± 0.0064	0.0185 ± 0.0035	0.022 ± 0.024	0.008 ± 0.0028	-0.041 ± 0.013	0 ± 0.021	0.0385 ± 0.0078	0.0585 ± 0.011	-0.026 ± 0.014	-0.028 ± 0.0042	-0.013 ± 0.011	-0.038 ± 0.0099	-0.0255 ± 0.043	-0.03 ± 0.024	-0.002 ± 0.021	-0.006 ± 0.0099	-0.0025 ± 0.016
KF3CT:uPA	0.0105 ± 0.0092	0.009 ± 0.0085	0.007 ± 0.014	-0.011 ± 0.014	-0.0085 ± 0.012	0.011 ± 0.0028	0.015 ± 0.016	-0.003 ± 0.0071	-0.0025 ± 0.0078	-0.019 ± 0.024	-0.0055 ± 0.0035	-0.011 ± 0.011	-0.0095 ± 0.0064	-0.0065 ± 0.03	0.0095 ± 0.005	-0.01 ± 0.017	-0.0165 ± 0.0092	-0.009 ± 0.0014
MyoF:CD106/VCAM-1	0.0035 ± 0.015	0.019 ± 0.0099	0.0065 ± 0.0078	-0.0035 ± 0.016	-0.0155 ± 0.012	-0.01 ± 0.0099	0.008	-0.0165 ± 0.005	-0.022 ± 0.014	-0.0145 ± 0.021	-0.023 ± 0.0099	-0.006 ± 0.0014	-0.0055 ± 0.00071	-0.0285 ± 0.026	-0.045 ± 0.021	-0.0005 ± 0.012	-0.016 ± 0.0085	-0.013 ± 0.0085
MyoF:CXCL8/IL-8	-0.0215 ± 0.013	0.013 ± 0.014	-0.0645 ± 0.056	-0.0895 ± 0.049	-0.163 ± 0.037	0.009 ± 0.014	0.023 ± 0.017	0.027 ± 0.02	0.0395 ± 0.015	-0.0085 ± 0.0021	-0.0225 ± 0.013	-0.0015 ± 0.021	0.011 ± 0.011	0.0335 ± 0.013	0.0145 ± 0.0021	-0.016 ± 0.037	-0.0275 ± 0.05	0.0145 ± 0.093
MyoF:Collagen I	0.01	-0.007 ± 0.0071	-0.019 ± 0.0071	-0.0015 ± 0.023	0.0265 ± 0.026	-0.0085 ± 0.015	-0.0095 ± 0.013	-0.024	0.011 ± 0.0028	-0.003 ± 0.013	-0.0005 ± 0.016	0.011 ± 0.0014	-0.026 ± 0.025	-0.0525 ± 0.0021	-0.19 ± 0.011	-0.0005 ± 0.037	0.0095 ± 0.0035	0.0255 ± 0.026
MyoF:Collagen III	-0.014 ± 0.0014	-0.014 ± 0.0042	-0.0185 ± 0.016	-0.007 ± 0.018	-0.0175 ± 0.005	-0.019 ± 0.021	-0.0135 ± 0.016	-0.0275 ± 0.0064	-0.0115 ± 0.0092	0.006 ± 0.0042	0.0035 ± 0.005	0.0055 ± 0.00071	-0.024 ± 0.0057	-0.0445 ± 0.0035	-0.317 ± 0.014	-0.0125 ± 0.005	-0.005 ± 0.011	-0.0145 ± 0.0064

From the supplement of paper PMC10331698
